Our source for the IC50 values is ChEMBL document CHEMBL4138051, “Antimalarial drug discovery targeting apical membrane antigen 1” (Medchemcomm, 2017).

The target of the test is T1, Apical membrane antigen 1 (Plasmodium falciparum, UniProt Q94661).
T1 sequence (Q94661 whole entry): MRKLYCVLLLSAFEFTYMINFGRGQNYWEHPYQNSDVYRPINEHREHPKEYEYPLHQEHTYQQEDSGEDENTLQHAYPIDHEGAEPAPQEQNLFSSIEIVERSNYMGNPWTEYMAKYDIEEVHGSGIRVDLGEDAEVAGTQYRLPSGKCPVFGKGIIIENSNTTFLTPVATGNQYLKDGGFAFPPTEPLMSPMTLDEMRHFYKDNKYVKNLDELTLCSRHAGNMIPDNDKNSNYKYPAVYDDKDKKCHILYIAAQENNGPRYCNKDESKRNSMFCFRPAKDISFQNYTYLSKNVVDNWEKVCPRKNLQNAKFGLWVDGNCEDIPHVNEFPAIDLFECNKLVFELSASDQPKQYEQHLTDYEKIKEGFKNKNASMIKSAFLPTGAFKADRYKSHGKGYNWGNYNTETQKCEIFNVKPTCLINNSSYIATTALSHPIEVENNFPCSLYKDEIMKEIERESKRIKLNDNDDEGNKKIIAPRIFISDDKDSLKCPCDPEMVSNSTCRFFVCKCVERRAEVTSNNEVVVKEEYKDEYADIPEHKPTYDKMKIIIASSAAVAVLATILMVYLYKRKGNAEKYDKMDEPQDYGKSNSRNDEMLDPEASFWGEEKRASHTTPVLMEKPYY
In words: Displacement of 5-FAM-Ahx-ALPLFSKFGSRMH from Plasmodium falciparum AMA1 by fluorescence anisotropy assay.

`COc1ccc(CN2CC(OCc3ccccc3F)CN(C(=O)CCc3c(C)nc4ncnn4c3C)CC2=O)cc1` (stereo unspecified) gave an IC50 of 24 µM.
